Laboratory results published in ChEMBL document CHEMBL1134880, “Quantum chemical- and 3-D-QSAR (CoMFA) studies of benzalacetones and 1,1,1-trifluoro-4-phenyl-3-buten-2-ones” (Bioorg Med Chem Lett, 2002).
pIC50: −log10 of the molar value.

These compounds were tested on Escherichia coli (assay: Inhibition of UV-induced mutagenesis in Escherichia coli WP2uvrA).
Type: functional, organism-based

**Q.** How did the pIC50 turn out when `CCOc1cccc(/C=C/C(C)=O)c1O` was run?
**A.** 2.92

**Q.** `N#Cc1ccc(/C=C/C(=O)C(F)(F)F)cc1` was tested. Which pIC50 did it give?
**A.** 4.60

**Q.** `COc1ccc(/C=C/C(=O)C(F)(F)F)cc1` was tested. Which pIC50 did it give?
**A.** 4.13

**Q.** With `O=C(/C=C/c1cccc(Cl)c1)C(F)(F)F` as the compound, how does the pIC50 read?
**A.** 4.62

**Q.** `CC(=O)/C=C/c1cccc(C#N)c1` was tested. Which pIC50 did it give?
**A.** 3.55

**Q.** How did the pIC50 turn out when `CC(=O)/C=C/c1ccccc1F` was run?
**A.** 3.47

**Q.** With `CC(=O)/C=C/c1cccc(C)c1` as the compound, how does the pIC50 read?
**A.** 2.82

**Q.** `CC(=O)/C=C/c1cccc([N+](=O)[O-])c1` was tested. Which pIC50 did it give?
**A.** 3.82

**Q.** With `CC(=O)/C=C/c1ccccc1O` as the compound, how does the pIC50 read?
**A.** 3.64

**Q.** With `CC(=O)/C=C/c1ccccc1Cl` as the compound, how does the pIC50 read?
**A.** 3.28

**Q.** With `CC(=O)/C=C/c1ccc(C)cc1` as the compound, how does the pIC50 read?
**A.** 2.80

**Q.** `COc1ccc(/C=C/C(C)=O)cc1` was tested. Which pIC50 did it give?
**A.** 2.80

**Q.** `COc1cccc(/C=C/C(C)=O)c1` was tested. Which pIC50 did it give?
**A.** 3.15

**Q.** With `CC(=O)/C=C/c1ccc(F)cc1` as the compound, how does the pIC50 read?
**A.** 3.20

**Q.** How did the pIC50 turn out when `CC(=O)/C=C/c1ccccc1Br` was run?
**A.** 3.40

**Q.** `CC(=O)/C=C/c1ccc([N+](=O)[O-])cc1` was tested. Which pIC50 did it give?
**A.** 4.08

**Q.** How did the pIC50 turn out when `CC(=O)/C=C/c1cc(C)c(O)c(C)c1` was run?
**A.** 2.96

**Q.** `CC(=O)/C=C/c1cccc(C(F)(F)F)c1` was tested. Which pIC50 did it give?
**A.** 3.66

**Q.** How did the pIC50 turn out when `COc1cccc(/C=C/C(C)=O)c1O` was run?
**A.** 3.17

**Q.** How did the pIC50 turn out when `CC(=O)/C=C/c1ccc(Br)cc1` was run?
**A.** 3.28

**Q.** `CC(=O)/C=C/c1cccc(Br)c1` was tested. Which pIC50 did it give?
**A.** 3.39

**Q.** With `CC(=O)/C=C/c1cccc(F)c1` as the compound, how does the pIC50 read?
**A.** 3.59

**Q.** `O=C(/C=C/c1ccc(Cl)cc1)C(F)(F)F` was tested. Which pIC50 did it give?
**A.** 4.80

**Q.** How did the pIC50 turn out when `CCc1ccc(/C=C/C(C)=O)cc1` was run?
**A.** 2.92

**Q.** `CC(=O)/C=C/c1cccc(Cl)c1` was tested. Which pIC50 did it give?
**A.** 3.37

**Q.** How did the pIC50 turn out when `O=C(/C=C/c1cccc([N+](=O)[O-])c1)C(F)(F)F` was run?
**A.** 4.77

**Q.** `CC(=O)/C=C/c1ccc(C(F)(F)F)cc1` was tested. Which pIC50 did it give?
**A.** 3.96

**Q.** `CC(=O)/C=C/c1cccc(C)c1O` was tested. Which pIC50 did it give?
**A.** 3.62

**Q.** With `O=C(/C=C/c1ccccc1Cl)C(F)(F)F` as the compound, how does the pIC50 read?
**A.** 4.55

**Q.** With `CC(=O)/C=C/c1ccc(O)c(O)c1` as the compound, how does the pIC50 read?
**A.** 3.01

**Q.** How did the pIC50 turn out when `O=C(/C=C/c1ccccc1)C(F)(F)F` was run?
**A.** 4.52

**Q.** With `N#Cc1cccc(/C=C/C(=O)C(F)(F)F)c1` as the compound, how does the pIC50 read?
**A.** 4.77

**Q.** How did the pIC50 turn out when `CC(=O)/C=C/c1ccc(Cl)cc1` was run?
**A.** 3.49

**Q.** With `CC(=O)/C=C/c1ccc(C#N)cc1` as the compound, how does the pIC50 read?
**A.** 3.77

**Q.** With `CC(=O)/C=C/c1ccc(O)cc1` as the compound, how does the pIC50 read?
**A.** 2.92
